Data as given in US20170000784A1, “Autophagy Inhibitors” (priority 2013, published 2017).
Read-outs that look alike come from different tables or passages of the source.

Tests used:
[1] = test system: phospho-ERK1/2 and LC3-II in A375 cells; test: Western blot of A375 cells treated with PLX-4032 with and without autophagy inhibitors; type: cell-based, human; conditions: in combination with PLX-4032, FIG. 16C
Protocol: For Western blotting, U2OS cells were seeded in 10 cm plates in 5A McCoy's with 10% FBS at 1×10^6 cells per plate. All melanoma lines were seeded in 10 cm plates in RPMI 1640 with 10% FBS at 1×10^6 cells per plate. After 24 hours, cells were treated with CQ, QN, Example 27, or Example 7 in a dose response of 0.3 μM, 1 μM, 3 μM, 10 μM, and 30 μM for three hours. A375 were treated with PLX-4032 (Selleck Chemicals, S1267) at 10 nM, 100 nM, and 1 μM for three hours with and without CQ, QN, Example 7, and Example 27 at 3 μM and 30 μM. After treatment, cells were lysed [10 mM KPO4, 1 mM EDTA, 10 mM MgCl2, 5 mM EGTA, 50 mM bis-glycerophosphate, 0.5% NP40, 0.1% Brij35, 0.1% sodium deoxycholate, 1 mM NaVO4, 5 mM NaF, 2 mM DTT, and complete protease inhibitors (Sigma, P8340-5 mL)] and 50 μg of protein was resolved by SDS-PAGE. Proteins were transferred to PVDF membranes and probed with primary antibodies [LC3 (Sigma, L7543-200UL), anti-α-tubulin (Sigma, T6199), cathepsin B (Santa Cruz, sc-13985)] for 16 hours at 4° C. followed by a secondary antibody [HRP-linked rabbit or mouse IgG (GE Healthcare, NA934 or NA931) or Odyssey IRDye 680CW Goat anti-rabbit IgG (LI-COR, 926-32221) or IRDye 800CW Goat anti-mouse IgG (LI-COR, 926-32210)] for 1 hour at room temperature. Proteins were detected with enhanced chemiluminescence or using the Odyssey machine and quantified (FIGS. 12, 15, 16, 7 and 11).
Since the melanoma cell lines are capable of undergoing autophagy and sensitive to autophagy inhibition, the inventors questioned whether autophagy inhibitors could improve the efficacy of, or sensitize melanoma cells against cytotoxic and chemotherapeutic drugs for advanced metastatic melanoma. In one example, PLX-4032 drug “vemurafenib” (marketed as ZELBORAF®) is a B-Raf enzyme inhibitor developed by Plexxikon and Genentech for the treatment of late-stage melanoma. The name “vemurafenib” comes from V600E mutated BRAF inhibition. PLX-4032, selectively targets the V600E mutant BRAF and it is unknown how this drug may affect autophagic flux. To determine the effects of the drug on autophagic flux, the present inventors performed experiments to determine whether PLX-4032 induces autophagy, as has been observed with other targeted agents. In some embodiments, the accumulation of LC3-II in response to lysosome inhibition was measured by quantitative Western blotting, as described above. A375 cells were treated with PLX-4032 (10 nM, 100 nM, and 1 μM) for three hours in the presence or absence of CQ.

[2] = test system: P. falciparum NF54 (CQ sensitive); test: In vitro P. falciparum asexual blood stage, [3H]-hypoxanthine, NF54; type: cell-based, Plasmodium falciparum; conditions: for antimalarial activity score: NF54 strain; for IC50: Plasmodium falciparum, NF54, Erythrocyte, read-out: Antimalarial activity (IC50) P. falciparum NF54 (CQ sensitive)
Protocol: In this example, compounds of Formula A, Formula A^1, Formula A^2, Formula A^3 or pharmaceutically acceptable salts thereof, are tested in Plasmodium sp infected cells to determine the effectiveness of these compounds to determine their anti-malarial activity. Exemplary compounds, Example 7 and Example 27 (See Table 1) were dissolved in DMSO at 10 mg/mL and 4× compound dilutions were prepared in screening medium [RPMI 1640 with no hypoxanthine, HEPES (5.94 μg/L), NaHCO3 (2.1 μg/L), Neomycin (100 μg/mL), and Albumax II (5 μg/L)]. Human red blood cells were prepared without and with stock cultures of P. falciparum strains, NF54 (Chloroquinine (CQ) sensitive) and K1 (CQ resistant), to a parasitemia of 0.3% and hematocrit of 2.5%. Using a 96-well plate, 100 μL/well of red blood solution was added along with a 2-fold serial dilution of Example 7 and Example 27. Plates were incubated at 37° C. with 93% N2, 4% CO2, and 3% O2 for 48 hours, after which 50 μL of [3H]-hypoxanthine (0.5 μCi) was added to each well. After 24 hours, plates were harvested with a Betaplate™ cell harvester (Wallac, Zurich Switzerland) which transferred the red blood cells onto a glass fiber filter and washed with distilled water. Dried filters were inserted into a plastic foil with 10 mL of scintillation fluid and counted in a Betaplate™ liquid scintillation counter (Wallac, Zurich Switzerland). Results were obtained as counts per minute (cpm) per well at each concentration.

[3] = test system: Plasmodium berghei; test: In vivo compound efficacy in Plasmodium berghei; conditions: mice; oral 50 mg/kg at 4, 24, 48 and 72 hours post-infection; day 4
Protocol: Mice were infected intravenously with parasitized red blood cells on day 0 (2×10^7 parasitized erythrocytes per mL). Experimental mice were treated at 4, 24, 48, and 72 hours post-infection with an oral dose of Example 7 at 50 mg/kg and were compared to an infected control group for the % reduction in parasitaemia on day 4 (96 hours post-infection) and for mean survival (monitored up to 30 days post-infection). A compound was considered curative if the animal survived to day 30 after infection with no detectable parasites.
The potent anti-malarial activity of Example 7, combined with its therapeutic window in vitro, led us to explore its activity in vivo using a murine model of malaria. Mice are infected with the murine specific Plasmodium, P. berghei, after which an antimalarial treatment regimen is given. Example 7 was given at 50 mg/kg at times 4, 24, 48, and 72 hours post-infection of mice already infected with P. berghei. The reduction in parasitemia, measured as the total blood load of the P. berghei parasite, was compared to an infected control group for the percent reduction of parasite on day 4 (96 hours post-infection). Example 7 was unexpectedly shown to be effective in reducing parasitemia by 99% compared to the infected control group after 4 days, making it an effective antimalarial in these preclinical models.

Row | Structure (SMILES) | LC3II accumulation [1] | antimalarial activity score [2] | IC50 [2] | IC50 ([2]; in vitro, infected human red blood cells) | reduction in parasitemia compared to the infected control group [3]
1 | CN1CCN(CCNc2c3c(nc4cc(Cl)ccc24)CCCC3)CC1 [Example 27, 6-Chloro-N-(2-(4-methylpiperazin-1-yl)ethyl)-1,2,3,4-tetrahydroacridin-9-amine] | greater increases in LC3II accumulation | low activity (low activity: IC50 50-1000 ng/mL) | 323 nM |  | 
2 | COc1ccc2nc3cc(Cl)ccc3c(NCCCCN3CCN(C)CC3)c2c1 [Example 7, 6-Chloro-2-methoxy-N-(4-(4-methylpiperazin-1-yl)butyl)acridin-9-amine] | greater increases in LC3II accumulation | good activity (good activity: IC50<50 ng/mL) |  | 4 nM | 99%
